Laboratory results: US9353151B2, “HLA-binding peptide, and DNA fragment and recombinant vector coding for said HLA-binding peptide” (NEC Corporation, priority 2005, dated 2016)
No end group written: not given here.

What was measured:
[1] = system: HLA-A24 molecule (product of the HLA-A*2402 gene); assay: Experiment of binding peptide to HLA-A24 molecule (C1R-A24 cells, flow cytometry); design: species or system human; details: for Binding Experiment Data: -log Kd value (Kd in molar concentration), C1R-A24 cells
Experimental: The ability of a peptide to bind to an HLA-A24 molecule, which is a product of the HLA-A*2402 gene, was measured using C1R-A24 cells expressing the HLA-A24 molecule (cells prepared by Professor Masafumi Takiguchi, Kumamoto University being supplied with permission by Assistant Professor Masaki Yasukawa, Ehime University).
C1R-A24 cells were first exposed to acidic conditions at a pH of 3.3 for 30 seconds, thus dissociating and removing a light chain β2m, which is associated with HLA class I molecules in common, and an endogenous peptide originally bound to the HLA-A*2402 molecule. After neutralization, purified β2m was added to C1R-A24 cells, the obtained product was added to serial dilutions of a peptide, and incubated on ice for 4 hours. Staining was carried out using fluorescently labeled monoclonal antibody 17A12, which recognizes association (MHC-pep) of the three members, that is, HLA-A*2402 molecule, the peptide, and β2m, which had reassociated during the incubation.
Subsequently, the MHC-pep count per C1R-A24 cell (proportional to the strength of fluorescence of the above-mentioned fluorescent antibody) was quantitatively measured using an FACScan fluorescence-activated cell sorter (Becton Dickinson Biosciences). A binding dissociation constant Kd value between the HLA-A24 molecule and the peptide was calculated from the average strength of fluorescence per cell by a published method (Udaka et al., Immunogenetics, 51, 816-828, 2000).

[2] = target: HLA-A2 molecule (product of the HLA-A*0201 gene) (Homo sapiens, UniProt P04439, D140Y/D185E/D98H/E176V/E277Q/G131W/G231S/I119V/I121R/I166T/I218V/L300P/L318F/N151K/N90K/P208A/P217A/Q86G/Q94H/R138H/R169H/T345S); assay: Experiment of binding peptide to HLA-A2 molecule (JY cells, flow cytometry); details: -log Kd value (Kd in molar concentration)
Experimental: JY cells were first exposed to acidic conditions at a pH of 3.8 for 30 seconds, thus dissociating and removing a light chain β2m and an endogenous peptide, which were noncovalently associated with the HLA-A*0201 molecule. After neutralization, a reassociation experiment was carried out.
The above-mentioned JY cells and the purified β2m were added to stepped dilutions of peptide for which the binding ability would be measured, and incubation was carried out on ice for 4 hours. HLA-A*0201 molecules that had reassociated up to this point were stained using the associating type specific fluorescently-labeled monoclonal antibody BB7.2.
Subsequently, the amount of fluorescence per cell was measured using a flow cytometer and a dissociation constant Kd value in molar concentration was calculated by a published method (Udaka et al., Immunogenetics, 51, 816-828, 2000).

| Sequence | binding to a human HLA-A type molecule (in words) [1] | Binding Experiment Data ([1]; 9 amino acid peptides) | other results |
| --- | --- | --- | --- |
| AFLSVKKQF [compound 2] | experimentally confirmed to bind | 7.7283 |  |
| FLKDHRISTF [compound 44] | experimentally confirmed to bind |  | Binding Experiment Data ([1]; 10 amino acid peptides): 7.008 |
| FLKDHRISTF [compound 61] |  |  | Kd ([2]; 10 amino acid peptides): 2.95 µM |
| GAPTLPPAW [compound 6] | experimentally confirmed to bind | 6.1588 |  |
| SSGCAFLSV [compound 21] |  |  | Kd ([2]; 9 amino acid peptides): 5.07 µM |
| TLPPAWQPF [compound 1] | experimentally confirmed to bind | 8.2648 |  |
| TLPPAWQPF [compound 23] |  |  | Kd ([2]; 9 amino acid peptides): 4.37 µM |
